# Measured values: publication PMC11530827, “Characterization of a cytochrome P450 that catalyzes the O-demethylation of lignin-derived benzoates” (The Journal of Biological Chemistry, 2024)
# Key:
# PbdA S87A/S237A = biological target: T1, PbdA S87A/S237A (Rhodococcus jostii, UniProt Q0SCI3, S235A/S85A); assay: Substrate binding to PbdA S87A/S237A variant by spectral titration; design: species or system Rhodococcus jostii RHA1
# T1 construct: hexaHis (N, cleaved yes); made in house; host or cells: PbdA variant: E. coli BL-21 λ (DE3); PbdB: Rhodococcus jostii RHA1
# T1 sequence (Q0SCI3 entry or part of it S85A/S235A): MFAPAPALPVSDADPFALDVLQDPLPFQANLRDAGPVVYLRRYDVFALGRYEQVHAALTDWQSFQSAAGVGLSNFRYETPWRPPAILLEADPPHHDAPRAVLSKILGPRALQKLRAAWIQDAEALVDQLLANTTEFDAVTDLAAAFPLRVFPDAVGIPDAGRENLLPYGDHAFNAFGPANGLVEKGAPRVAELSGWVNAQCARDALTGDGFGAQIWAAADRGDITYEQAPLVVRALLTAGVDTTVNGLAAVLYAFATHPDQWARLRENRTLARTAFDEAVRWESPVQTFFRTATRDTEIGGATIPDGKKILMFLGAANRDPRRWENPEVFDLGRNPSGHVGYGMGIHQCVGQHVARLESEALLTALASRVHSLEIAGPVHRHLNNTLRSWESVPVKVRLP
# Protocol: (§1) UV-visible spectroscopy was conducted with a Cary 60 spectrophotometer equipped with a thermostatted cuvette holder at 25 °C. Scans of purified proteins diluted in 20 mM Mops, I = 0.1 M, pH 7.2 were taken between 250 and 700 nm. Heme concentration was calculated as described previously ([35]). Carbon monoxide binding was determined by reduction of PbdA diluted in 20 mM Mops, I = 0.1 M, pH 7.2 as above by a few grains of […]. CO was bubbled into the reduced enzyme for approximately 60 s at a rate of one bubble per second. Dissociation constants (Kd) were determined by titration of ligands diluted into enzyme buffer from 1 M stocks prepared in dimethyl sulfoxide into PbdA diluted in 20 mM Mops, I = 0.1 M, pH 7.2. Spectra take upon addition of substrate were subtracted from the spectrum of the enzyme, and peak-to-trough distance was plotted by ligand concentration. Kd values were determined by fitting a hyperbolic equation to the data as described previously ([23], [36]). The proportion of high-spin heme iron was determined using the approximate peak-to-trough extinction coefficient (ε ≈ 100 mM^−1 cm^−1) ([36]).
# PbdA S237A [1] = biological target: T2, PbdA S237A (Rhodococcus jostii, UniProt Q0SCI3, S235A); assay: Activity and coupling assay of PbdA S237A variant with PbdB; assay type: biochemical, Rhodococcus jostii RHA1
# T2 construct: hexaHis (N, cleaved yes); made in house; host or cells: PbdA variant: E. coli BL-21 λ (DE3); PbdB: Rhodococcus jostii RHA1
# T2 sequence (Q0SCI3 entry or part of it S235A): as the sequence (Q0SCI3 entry or part of it S85A/S235A) above, with A85S counted along it
# Protocol: (§2) For activity measurements 0.25 to 1 μM of PbdA and PbdB were combined in a 200 μl cuvette in 20 mM Mops, pH 7.2 with substrate diluted in the same buffer. NADH was added to 350 μM to initiate the reaction. For HPLC analysis, enzymatic reactions were acidified by adding acetic acid to 10% final concentration, centrifuged (16,000×g for 10 min), and filtered through a 0.2 μm polytetrafluoroethylene membrane. Samples were run over a Luna 5 μm C18(2) 100 Å 150 × 3 mm column (Phenomenex) at 0.7 ml min^−1 by a Waters 2695 separation HPLC module. Samples were eluted with a 16.8 ml linear gradient from 1% methanol plus 0.1% formic acid in water to 100% methanol plus 0.1% formic acid and monitored at 280 nm with a Waters 2996 photodiode array detector. Concentrations were determined by interpolation on a standard curve of 0 to 1 mM of authentic standard. NADH concentration was measured by absorbance at 340 nm, ε = 6.22 mM^-1 cm^-1. Coupling was calculated from the ratio of rate of aromatic turnover, as determined by HPLC, and the rate of NADH oxidation, determined spectroscopically. Buffer ionic strength was adjusted by addition of NaCl, as appropriate. Apparent steady-state kinetic parameters were calculated by fitting Michaelis–Menten equations to initial velocity of reactions at various concentrations of aromatic substrate (LEONORA).
# (§3) ^aExperiments were performed using air-saturated MOPS (I = 0.1 M), pH 7.2, at 25 °C. The rate of aromatic substrate turnover was based on the appearance of O-demethylated product. Standard deviation is shown in parentheses.
# PbdA S87A [2] = biological target: T3, PbdA S87A (Rhodococcus jostii, UniProt Q0SCI3, S85A); assay: Substrate binding to PbdA S87A variant by spectral titration; design: species or system Rhodococcus jostii RHA1
# T3 construct: hexaHis (N, cleaved yes); made in house; host or cells: PbdA variant: E. coli BL-21 λ (DE3); PbdB: Rhodococcus jostii RHA1
# T3 sequence (Q0SCI3 entry or part of it S85A): as the sequence (Q0SCI3 entry or part of it S85A/S235A) above, with A235S counted along it
# Protocol: as §1
# PbdA S237A [3] = biological target: T2, PbdA S237A; assay: Substrate binding to PbdA S237A variant by spectral titration; design: species or system Rhodococcus jostii RHA1
# Protocol: as §1
# PbdA R84M = biological target: T4, PbdA R84M (Rhodococcus jostii, UniProt Q0SCI3, R82M); assay: Activity and coupling assay of PbdA R84M variant with PbdB; assay type: biochemical, Rhodococcus jostii RHA1
# T4 construct: hexaHis (N, cleaved yes); made in house; host or cells: PbdA variant: E. coli BL-21 λ (DE3); PbdB: Rhodococcus jostii RHA1
# T4 sequence (Q0SCI3 entry or part of it R82M): as the sequence (Q0SCI3 entry or part of it S85A/S235A) above, with R82M, A85S, A235S counted along it
# Protocol: as §2, §3
# PbdA = biological target: T5, PbdA (Rhodococcus jostii, UniProt Q0SCI3)
# T5 sequence (Q0SCI3 1-400): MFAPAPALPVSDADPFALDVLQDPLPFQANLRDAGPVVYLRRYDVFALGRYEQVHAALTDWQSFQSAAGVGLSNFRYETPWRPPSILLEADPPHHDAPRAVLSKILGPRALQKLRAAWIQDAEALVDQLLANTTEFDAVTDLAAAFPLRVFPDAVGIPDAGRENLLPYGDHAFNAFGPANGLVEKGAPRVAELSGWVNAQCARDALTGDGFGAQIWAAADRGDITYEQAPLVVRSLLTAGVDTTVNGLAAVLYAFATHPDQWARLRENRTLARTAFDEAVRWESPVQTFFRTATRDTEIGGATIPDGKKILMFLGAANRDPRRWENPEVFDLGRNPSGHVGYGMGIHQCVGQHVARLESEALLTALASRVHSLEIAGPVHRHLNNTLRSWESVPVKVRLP
# Protocol: We then measured coupling under optimum conditions for other substrates. […] Finally, we measured the apparent steady-state kinetic parameters of the PbdA reaction under conditions of maximal coupling (Fig. S4).
# as §2
# PbdA S87A [4] = biological target: T3, PbdA S87A; assay: Activity and coupling assay of PbdA S87A variant with PbdB; assay type: biochemical, Rhodococcus jostii RHA1
# Protocol: as §2, §3
# [5] = air-saturated MOPS (I = 0.1 M), pH 7.2, 25 °C
# [6] = appearance of O-demethylated product
smiles,measurement,setting,value
"COc1ccc(C(=O)O)cc1 [p-MBA, p-methoxybenzoate]",Kd,PbdA S87A/S237A,70 µM
same,ΔG°,"PbdA S87A/S237A; S87A/S237A variant, binding energy",-5.7 kcal/mol
same,ΔΔG°,"PbdA S87A/S237A; S87A/S237A variant, comparison of ΔG° of variant to wild type",1.7 kcal/mol
same,Coupling,PbdA S237A [1],80 (2) %
same,Specific activity,PbdA S237A [1]; O-demethylation,2600 (400) U μg P450^-1
same,NADH depletion rate,PbdA S237A [1]; [5],3600 (600) U mg P450^-1
same,Rate of Aromatic turnover,PbdA S237A [1]; [6],2600 (400) U mg P450^-1
same,Kd,PbdA S87A [2],50 µM
same,ΔG°,"PbdA S87A [2]; S87A variant, binding energy",-5.9 kcal/mol
same,ΔΔG°,"PbdA S87A [2]; S87A variant, comparison of ΔG° of variant to wild type",1.5 kcal/mol
same,Kd,PbdA S237A [3],29 µM
same,ΔG°,"PbdA S237A [3]; S237A variant, binding energy",-6.2 kcal/mol
same,ΔΔG°,"PbdA S237A [3]; S237A variant, comparison of ΔG° of variant to wild type",1.2 kcal/mol
same,Coupling,PbdA R84M,70 (9) %
same,Specific activity,PbdA R84M; O-demethylation,1100 (200) U μg P450^-1
same,NADH depletion rate,PbdA R84M; [5],1700 (200) U mg P450^-1
same,Rate of Aromatic turnover,PbdA R84M; [6],1100 (200) U mg P450^-1
same,kcat (apparent),"PbdA; WT PbdA with PbdB, air-saturated Mops (I = 0.1 M), pH 7.2, 25 °C, SD in parentheses",0.37 (0.02) s^−1
same,Specific activity,"PbdA; WT PbdA, O-demethylation, SD in brackets",2700 (100) U μg P450^-1
same,NADH depletion rate,"PbdA; WT PbdAB, air-saturated MOPS (I = 0.1 M), pH 7.2, 25 °C, SD in parentheses",2700 (100) U mg P450^-1
same,Rate of Aromatic turnover,"PbdA; WT PbdAB, appearance of O-demethylated product (disappearance of p-EB), SD in parentheses",2700 (200) U mg P450^-1
same,Coupling,"PbdA; WT PbdAB, ratio of aromatic turnover rate to NADH oxidation rate",100 (3) %
same,Km,"PbdA; read-out: KM (apparent), WT PbdA with PbdB, air-saturated Mops (I = 0.1 M), pH 7.2, 25 °C, SD in parentheses",18 µM
same,Coupling,PbdA S87A [4],45 (7) %
same,Specific activity,PbdA S87A [4]; O-demethylation,800 (200) U μg P450^-1
same,NADH depletion rate,PbdA S87A [4]; [5],1700 (200) U mg P450^-1
same,Rate of Aromatic turnover,PbdA S87A [4]; [6],800 (200) U mg P450^-1
